Experimental data reported in patent publication US9968619B2, “Method of treating triple-negative breast cancer using thienotriazolodiazepine compounds” (ONCOETHIX GMBH, priority 2014, dated 2018).

Columns and labels:
Oral exposure in the rat = type: in vivo, Sprague Dawley rats; conditions: 1 mg/kg intravenous
Method: The oral bioavailability of three formulations of solid dispersions of compound (1-1) was determined in rats. The three dispersions chosen were the 25% dispersion of compound (1-1) in PVP, the 25% dispersion of compound (1-1) in HPMCAS-MG, and the 50% dispersion of compound (1-1) in HPMCAS-MG. The animals used in the study were Specific Pathogen Free (SPF) Hsd: Sprague Dawley rats obtained from the Central Animal Laboratory at the University of Turku, Finland. The rats were originally purchased from Harlan, The Netherlands. The rats were female and were ten weeks of age, and 12 rats were used in the study. […]
The oral dosing solutions containing the 25% dispersion of compound (1-1) in PVP, the 25% dispersion of compound (1-1) in HPMCAS-MG, and the 50% dispersion of compound (1-1) in HPMCAS-MG were prepared by adding a pre-calculated amount of sterile water for injection to containers holding the dispersion using appropriate quantities to obtain a concentration of 0.75 mg/mL of compound (1-1). […]
Pharmacokinetic parameters were calculated with the Phoenix WinNonlin software package (version 6.2.1, Pharsight Corp., CA, USA) with standard noncompartmental methods. The elimination phase half-life (t1/2) was calculated by least-squares regression analysis of the terminal linear part of the log concentration-time curve. […]

MDA-MB-231 = test: Cell cycle after drug washout, MDA-MB-231; type: cell-based, human; conditions: 75 nM for 72 h, then 48 h of drug washout
Method: Cells were staining with propidium iodide then analyzed using a FACScan flow cytometer. […] After 72 h of treatment, control and treated cells were washed with PBS and re-incubated with compound (1-1) free medium (drug washout). As show in FIG. 14A-14C, significant differences in the percentage of compound (1-1)-treated cells in the G1, S and G2/M phases with respect to untreated controls were determined by a one-way ANOVA test (p<0.001) followed by an SNK a posteriori test. After washout, significant differences in the percentage of cells in a given cell cycle phase between control and pre-treated cells were determined with the Student t-test for independent samples with equal or different variance, as appropriate. * , × and # means significant difference between treated cells respect and controls in G1 phase (*p<0.05, **p<0.01), G2/M phase (×p<0.05, ××p<0.01) and S phase p<0.05, ## p<0.01), respectively. Each bar and vertical line represents the mean±SEM, respectively (n≥3).

[1] = system: MDA-MB-231 nude mice-derived xenografts; test: MDA-MB-231 xenografts in nude mice; type: in vivo
Method: In vivo assays were performed in 8-week-old female MDA-MB-231 nude mice-derived xenografts. 10×10^6 cells were injected, when tumor volume reached 100 mm^3, mice were randomized to 4 groups (n=9): 1) vehicle; 2) 50 mg/kg Compound (1-1) (BID, po); 3) 2 mg/kg of everolimus (3 time a week, ip); 4) combination Compound (1-1) and everolimus; 4 weeks treatment.
Symbols with • indicate significant differences between treatment vs. vehicle-treated mice (p<0.05). * indicates a significant difference in the tumor mass between the combination treated animals and the two single agent groups (*p<0.05, **p<0.01 and ***p<0.001). Results represent the mean±SEM (during the treatment period, n=9). Variation of animal body weight during treatment is illustrated in FIG. 18B. […] The T/C ratio was 39% after 10 days of combination treatment, with an optimal value of 21% on day 23. Compound (1-1) can be used for the treatment of TNBC, either alone or in combination with mTOR inhibitors.

HCC1937 = test: MTT proliferation assay, HCC1937; conditions: Homo sapiens
[2] = Compound (1-1) 50 mg/kg BID po, everolimus 2 mg/kg 3 time a week ip, 4 weeks treatment
[3] = HCC1937, 48 h, 48 h exposure, hypoxia (0.1% O2)
[4] = HCC1937, 48 h, 48 h exposure, normoxia
[5] = HCC1937, 72 h, 72 h exposure, hypoxia (0.1% O2)

Cc1sc2c(c1C)C(c1ccc(Cl)cc1)=N[C@@H](CC(=O)Nc1ccc(O)cc1)c1nnc(C)n1-2 [Compound (1-1), 2-[(6S)-4-(4-chlorophenyl)-2,3,9-trimethyl-6H-thienol[3,2-f]-[1,2,4]triazolo[4,3-a][1,4]diazepin-6-yl]-N-(4-hydroxyphenyl)acetamide dihydrate]
CI/F (Oral exposure in the rat): 13.4 mL/min/kg
cell cycle pattern after drug washout (MDA-MB-231): recovered the control cell cycle pattern
body weight ([1]; 50 mg/kg BID po, after 19 days of treatment): without body weight loss
best T/C % [1, 2]: 40.7%
tumor mass with respect to vehicle-treated mice [1, 2]: significant (p<0.05) reduction
Emax (HCC1937; [3]): 60%
GI50 (HCC1937; [3]): 23.1 nM
Emax (HCC1937; [4]): 41%
GI50 (HCC1937; [4]): 110 nM
Emax (HCC1937; [5]): 74%
GI50 (HCC1937; [5]): 29 nM
Emax (HCC1937; HCC1937, 72 h, 72 h exposure, normoxia): 51%
GI50 (HCC1937; HCC1937, 72 h, 72 h exposure, normoxia, * = apparent value): 81.9 nM
